Key:
[1] = target: human adenosine A2a receptor (Homo sapiens (Human), UniProt P29274); test: HEK293-hA2a [3H]-ZM241385 binding assay (Test A); conditions: HEK293 membranes, 1 nM [3H]ZM241385, 25° C., 1 h
Protocol: (§1) All test compounds were prepared as a stock solution of 10 mM in 100% DMSO.

[2] = target: human adenosine A1 receptor (Homo sapiens (Human), UniProt P30542); test: CHO-hA1 [3H]DPCPX binding assay (Test A); conditions: CHO membranes, 1 nM [3H]DPCPX, 25° C., 1 h
Protocol: as §1

[3] = system: haloperidol-induced catalepsy in rats; test: Catalepsy reversal test (Test B); assay type: in vivo, Sprague-Dawley rats; conditions: 120 min pre-test time; for reversal of cataleptic behavior in rats pre-treated with haloperidol: dose of 1 mg/kg p.o.
Protocol: The dopamine D2 receptor antagonist, haloperidol, induces Parkinsonism in humans and induces motor effects in rats such as catalepsy. There is considerable evidence that adenosine A2A receptor antagonists reverse haloperidol-induced motor effects in preclinical studies. […] The present study determines the ability of haloperidol-induced catalepsy in rats to be reversed by novel A2A receptor antagonists.
Haloperidol (0.82 mg/kg, i.p.; 150 min pre-test time) induces significant cataleptic behaviour in rats (average score 3.1). The effect of selected compounds of the invention (2-10 mg/kg or 0.3-3 mg/kg, p.o.; 120 min pre-test time) on catalepsy was established by administration of said compounds to rats pre-treated with haloperidol as described above.
Details of a similar test may be found in, for example, Hodgson et al., J. Pharmacol. Exp. Ther. 330, 2009.

Sequence of human adenosine A1 receptor (P30542 whole entry): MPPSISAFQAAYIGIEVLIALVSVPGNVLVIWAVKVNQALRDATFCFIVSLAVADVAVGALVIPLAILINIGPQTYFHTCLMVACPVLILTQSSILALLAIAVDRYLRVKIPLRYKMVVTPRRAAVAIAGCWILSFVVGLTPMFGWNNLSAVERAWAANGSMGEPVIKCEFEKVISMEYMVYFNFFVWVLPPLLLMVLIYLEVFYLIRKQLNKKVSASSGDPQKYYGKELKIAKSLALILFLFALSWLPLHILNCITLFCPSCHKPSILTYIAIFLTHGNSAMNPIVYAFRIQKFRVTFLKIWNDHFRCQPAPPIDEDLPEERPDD
Sequence of human adenosine A2a receptor (P29274 whole entry): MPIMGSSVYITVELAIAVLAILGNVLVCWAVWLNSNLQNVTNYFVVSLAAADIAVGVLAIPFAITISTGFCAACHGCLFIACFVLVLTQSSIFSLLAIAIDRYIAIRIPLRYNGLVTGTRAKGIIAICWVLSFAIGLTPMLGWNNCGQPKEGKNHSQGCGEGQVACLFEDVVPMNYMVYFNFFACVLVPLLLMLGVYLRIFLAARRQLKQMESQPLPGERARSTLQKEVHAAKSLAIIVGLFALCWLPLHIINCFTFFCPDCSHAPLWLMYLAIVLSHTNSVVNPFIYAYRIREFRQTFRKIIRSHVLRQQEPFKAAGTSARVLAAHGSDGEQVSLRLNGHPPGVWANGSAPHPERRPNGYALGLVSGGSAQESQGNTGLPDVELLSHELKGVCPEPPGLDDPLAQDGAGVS

Structure (SMILES) | pKi A2a [1] | pKi A1 [2] | ED50, reversal of cataleptic behaviour in rats pre-treated with haloperidol ([3]; p.o., haloperidol 0.82 mg/kg i.p.) | reversal of cataleptic behavior in rats pre-treated with haloperidol [3]
Nc1nnc(-c2ccnc(Cl)c2)c(-c2ccccc2)n1 [1(xliii)] | 7.74 | 8.54 | 0.27 mg/kg | 
Cc1cc(-c2nnc(N)nc2-c2ccccc2)cc(Br)n1 [1(ccxii)] | 8.66 | 7.68 |  | statistically significant
Cc1cc(-c2nnc(N)nc2-c2ccc(Cl)cc2)cc(C)n1 [1(clix)] | 7.81 | 7.07 |  | statistically significant
Cc1cc(-c2nnc(N)nc2-c2ccccc2)cc(Cl)n1 [1(lvi)] | 8.22 | 7.33 |  | statistically significant
Cc1cc(Cl)cc(-c2nnc(N)nc2-c2ccccc2)c1 [1(li)] | 8.66 | 6.87 |  | statistically significant
Cc1cc(-c2nnc(N)nc2-c2cccc(F)c2)cc(Cl)n1 [1(xc)] | 8.07 | 7.26 |  | statistically significant
Cc1cc(-c2nnc(N)nc2-c2ccccc2F)cc(C(F)(F)F)n1 [1(cxci)] | 8.26 | 7.36 |  | statistically significant
Cc1cc(-c2nnc(N)nc2-c2ccccc2)cc(N2CCC2)n1 [5(x), 6-[2-(Azetidin-1-yl)-6-methylpyridin-4-yl]-5-phenyl-1,2,4-triazin-3-amine] | 8.52 | 8.05 |  | statistically significant
Nc1nnc(-c2cc(Cl)nc(C(F)(F)F)c2)c(-c2ccc(F)cc2)n1 [1(clxix)] | 8.40 | 6.99 |  | statistically significant

Source: patent US10988455B2, “1,2,4-triazine-4-amine derivatives” (Heptares Therapeutics Limited, priority 2010, dated 2021)
